The values that follow are results of earlier work, collected in US6943021B2, “Three dimensional vaginal tissue model containing immune cells” (MatTek Corporation, priority 2002, dated 2005).

The series deals with ectocervical-vaginal tissue.

With Nonoxynol-9 [N-9], where the note is “finite segment of the population (Reckart 1992)”, the ectocervical-vaginal irritation entry is on record as “cause ectocervical-vaginal irritation”. Further, the “volunteers who experienced ectocervical-vaginal irritation” value (study evaluating N-9 as an HIV microbicide (Stafford et al. 1998)) is reported as 25%.
